Assay results published in article PMC12301332, “Biased antagonism of a series of bicyclic CXCR2 intracellular allosteric modulators” (Frontiers in Pharmacology, 2025).

Tests used:
[1] = molecular target: T1, CXCR2 (Homo sapiens, UniProt P25025); assay: NanoBRET-based G protein activation inhibition assay (REGA-SIGN Gαi1 dissociation) in HEK293A.CXCR2 cells; assay type: cell-based; conditions: n = 3; for IC50: mean; for Imax Gαi1 (maximum observed inhibitory effect): normalized to Imax of navarixin = 100%
T1 construct: expressed in transfected cells
T1 sequence (P25025 1-360): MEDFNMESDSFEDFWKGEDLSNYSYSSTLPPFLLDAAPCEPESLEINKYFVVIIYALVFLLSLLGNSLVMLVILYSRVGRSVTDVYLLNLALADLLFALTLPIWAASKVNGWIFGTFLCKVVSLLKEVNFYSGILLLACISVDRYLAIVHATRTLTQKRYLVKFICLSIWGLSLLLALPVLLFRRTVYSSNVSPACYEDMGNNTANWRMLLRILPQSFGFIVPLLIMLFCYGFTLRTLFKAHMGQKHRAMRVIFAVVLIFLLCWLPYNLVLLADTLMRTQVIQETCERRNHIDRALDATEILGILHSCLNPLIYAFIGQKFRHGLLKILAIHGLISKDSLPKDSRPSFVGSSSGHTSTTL
Experimental: Cells were trypsinized and resuspended at 3 × 10^5 cell/mL in the growth medium, whereafter they were incubated for 2 hours at RT. Cells were transfected in suspension using FuGENE® HD Transfection Reagent at a 3:1 reagent to DNA ratio in Opti-MEMTM I Reduced-Serum Medium, with the final DNA concentration of 1 μg/μL. The transfection mixture was incubated for 10 min at RT before adding it to the cell suspension. Transfected cells were seeded at 3.0 × 10^4 cells/well in a white, clear, flat-bottom 96-well plate coated with 100 μg/mL poly-D-lysin ([…], Sigma Aldrich) and incubated for 48 h at 37°C and 5% CO2. […] (2023)]. Following the 48-h incubation period, cells were washed with the assay buffer. Compounds were serially diluted in 1:500 Nano-Glo® Vivazine^TM working solution (#N2581, Promega), and 90 μL of compound/Vivazine mix was added, followed by incubation for 45 min at 37°C and 5% CO2. Plates were transferred to the FLIPR Penta system (Molecular Devices) at 37°C, and all steps onward are automated and performed by the FLIPR Penta system. After a 10-min equilibration period, the baseline BRET signal was determined by five consecutive reads followed by automatic administration of 10 μL of 10× ligand (Table 1) to the cell plate. Changes in the BRET signal was measured for 10 min, with each read spaced by 2.5 s. […] BRET ratios were extracted from ScreenWorks software (Molecular Devices) and represent the ratio between the acceptor emission of […]2 or mNG (G protein or β-arrestin recruitment, respectively) and NLuc donor emission. The basal BRET ratio was defined as the average BRET ratio of the five consecutive readings preceding ligand addition. Changes in BRET values post ligand administration (ΔBRET) were calculated for each well as a percentage difference to the previously defined basal BRET ratio. Average ΔBRET values were baseline corrected by subtracting the average negative control BRET ratio (unstimulated condition). […] AUCs were normalized to the positive control (stimulated condition); whereafter, dose-response curves were fitted to log (inhibitor) vs response (three parameters) in GraphPad 10.2.0 (GraphPad Software). […] Calculation 1: calculation of the BRET signal. • 1. […] NC correctedΔBRET=Δ[…]. • 4. a. Neg AUC of NC correctedΔBRET=Gα activation read out. b. Pos AUC of NC correctedΔBRET=β-arrestin recruitment.

[2] = molecular target: T1, CXCR2; assay: NanoBRET β-arrestin1 recruitment inhibition assay (NanoLux) in HEK293A cells; assay type: cell-based; conditions: n = 3; for IC50: mean, read-out: IC50 βarr1; for Imax βarr1 (maximum observed inhibitory effect): normalized to Imax of navarixin = 100%
Experimental: Cells were trypsinized and resuspended at 3 × 10^5 cell/mL in the growth medium, whereafter they were incubated for 2 hours at RT. Cells were transfected in suspension using FuGENE® HD Transfection Reagent at a 3:1 reagent to DNA ratio in Opti-MEMTM I Reduced-Serum Medium, with the final DNA concentration of 1 μg/μL. The transfection mixture was incubated for 10 min at RT before adding it to the cell suspension. Transfected cells were seeded at 3.0 × 10^4 cells/well in a white, clear, flat-bottom 96-well plate coated with 100 μg/mL poly-D-lysin ([…], Sigma Aldrich) and incubated for 48 h at 37°C and 5% CO2. HEK293A cells were transiently co-transfected with plasmids encoding β-arrestin1 protein tagged with NLuc (donor) and CXCR2 protein tagged with mNeonGreen (mNG) acceptor in a 1:10 donor to acceptor ratio, as described previously ([Luís et al., 2022]). All subsequent steps are identical to those in “NanoBRET-based G protein activation inhibition assay,” which are described above. Measurements were acquired using a 440- to 480-nm donor emission filter (#0200-6179, Molecular Devices) and a 515- to 575-nm acceptor emission filter (#0200-6203, Molecular Devices) BRET ratios were extracted from ScreenWorks software (Molecular Devices) and represent the ratio between the acceptor emission of […]2 or mNG (G protein or β-arrestin recruitment, respectively) and NLuc donor emission. The basal BRET ratio was defined as the average BRET ratio of the five consecutive readings preceding ligand addition. Changes in BRET values post ligand administration (ΔBRET) were calculated for each well as a percentage difference to the previously defined basal BRET ratio. Average ΔBRET values were baseline corrected by subtracting the average negative control BRET ratio (unstimulated condition). […] AUCs were normalized to the positive control (stimulated condition); whereafter, dose-response curves were fitted to log (inhibitor) vs response (three parameters) in GraphPad 10.2.0 (GraphPad Software). […] Calculation 1: calculation of the BRET signal. • 1. […] NC correctedΔBRET=Δ[…]. • 4. a. Neg AUC of NC correctedΔBRET=Gα activation read out. b. Pos AUC of NC correctedΔBRET=β-arrestin recruitment.

[3] = molecular target: T1, CXCR2; design: method as in Boon et al., 2024; conditions: agonist concentration used in NanoBRET assays; ref Boon et al., 2024; cited from earlier work
[4] = molecular target: T1, CXCR2; design: method as in Boon et al., 2024; conditions: agonist concentration used in NanoBRET assays; ref Boon et al., 2024; cited from earlier work; remark: listed apart in the source

Compound	IC50 ([1]; CXCL1 at EC80) [µM]	Imax Gαi1 (maximum observed inhibitory effect) ([1]; CXCL1 at EC80) [%]	IC50 ([1]; CXCL2 at EC80) [µM]	Imax Gαi1 (maximum observed inhibitory effect) ([1]; CXCL2 at EC80) [%]	IC50 ([1]; CXCL3 at EC80) [µM]	Imax Gαi1 (maximum observed inhibitory effect) ([1]; CXCL3 at EC80) [%]	IC50 ([1]; CXCL5 at EC80) [µM]	Imax Gαi1 (maximum observed inhibitory effect) ([1]; CXCL5 at EC80) [%]	Imax Gαi1 (maximum observed inhibitory effect) ([1]; CXCL6 at EC80) [%]	Imax Gαi1 (maximum observed inhibitory effect) ([1]; CXCL7 at EC80) [%]	Imax Gαi1 (maximum observed inhibitory effect) ([1]; CXCL8 at EC80) [%]	Imax βarr1 (maximum observed inhibitory effect) ([2]; CXCL1 at EC80) [%]	Imax βarr1 (maximum observed inhibitory effect) ([2]; CXCL2 at EC80) [%]	Imax βarr1 (maximum observed inhibitory effect) ([2]; CXCL3 at EC80) [%]	Imax βarr1 (maximum observed inhibitory effect) ([2]; CXCL5 at EC80) [%]	Imax βarr1 (maximum observed inhibitory effect) ([2]; CXCL6 at EC80) [%]	Imax βarr1 (maximum observed inhibitory effect) ([2]; CXCL7 at EC80) [%]	Imax βarr1 (maximum observed inhibitory effect) ([2]; CXCL8 at EC80) [%]	β-arrestin EC80 [3] [µM]	G-protein EC80 [4] [µM]	also measured
CC(CO)Nc1nc(SCc2cccc(F)c2F)nc2[nH]cnc12 (centres unmarked) [MVH-15]	> 15	<50	> 15	<50	> 15	<50	> 15	<50	<50	<50	<50	100	100	100	100	100	100	100	–	–	IC50 ([1]; CXCL6 at EC80): > 15 µM; IC50 ([1]; CXCL7 at EC80): > 15 µM; IC50 ([1]; CXCL8 at EC80): > 15 µM; IC50 ([2]; CXCL1 at EC80): 3.51 ± 0.83 µM; IC50 ([2]; CXCL2 at EC80): 2.06 ± 0.57 µM; IC50 ([2]; CXCL3 at EC80): 4.29 ± 1.16 µM; IC50 ([2]; CXCL5 at EC80): 2.1 ± 0.36 µM; IC50 ([2]; CXCL6 at EC80): 2.28 ± 0.57 µM; IC50 ([2]; CXCL7 at EC80): 0.7 ± 0.14 µM; IC50 ([2]; CXCL8 at EC80): 4.07 ± 1.6 µM
CXCL6: recombinant human ELR+ chemokine, CXCR2 ligand (PeproTech)	–	–	–	–	–	–	–	–	–	–	–	–	–	–	–	–	–	–	0.168	0.01712	–
CXCL8: recombinant human ELR+ chemokine, CXCR2 ligand (PeproTech)	–	–	–	–	–	–	–	–	–	–	–	–	–	–	–	–	–	–	0.01729	0.00416	–
CXCL2: recombinant human ELR+ chemokine, CXCR2 ligand (PeproTech)	–	–	–	–	–	–	–	–	–	–	–	–	–	–	–	–	–	–	0.1478	0.00215	–
CXCL5: recombinant human ELR+ chemokine, CXCR2 ligand (PeproTech)	–	–	–	–	–	–	–	–	–	–	–	–	–	–	–	–	–	–	0.08619	0.00516	–
CXCL1: recombinant human ELR+ chemokine, CXCR2 ligand (PeproTech)	–	–	–	–	–	–	–	–	–	–	–	–	–	–	–	–	–	–	0.05918	0.0032	–
CC(CO)Nc1nc(SCc2cccc(F)c2F)nc2nc(N)sc12 (centres unmarked) [MVH-23]	–	94.85 ± 3.70	–	100	–	100	–	94.29 ± 2.32	100	100	100	100	100	100	100	100	100	100	–	–	–
CC(CO)Nc1nc(SCc2cccc(F)c2F)nc2ncsc12 (centres unmarked) [MVH-22]	> 15	<50	> 15	<50	> 15	<50	> 15	<50	<50	<50	<50	100	100	100	100	100	97.6 ± 3.45	100	–	–	IC50 ([1]; CXCL6 at EC80): > 15 µM; IC50 ([1]; CXCL7 at EC80): > 15 µM; IC50 ([1]; CXCL8 at EC80): > 15 µM; IC50 ([2]; CXCL1 at EC80): 2.85 ± 0.68 µM; IC50 ([2]; CXCL2 at EC80): 1.5 ± 0.18 µM; IC50 ([2]; CXCL3 at EC80): 3.44 ± 0.75 µM; IC50 ([2]; CXCL5 at EC80): 1.96 ± 0.53 µM; IC50 ([2]; CXCL6 at EC80): 1.47 ± 0.2 µM; IC50 ([2]; CXCL7 at EC80): 0.5 ± 0.07 µM; IC50 ([2]; CXCL8 at EC80): 2.66 ± 0.3 µM
CXCL3: recombinant human ELR+ chemokine, CXCR2 ligand (PeproTech)	–	–	–	–	–	–	–	–	–	–	–	–	–	–	–	–	–	–	0.1001	0.00892	–
CCCC(C)CSc1nc(NC(C)CO)c2nn[nH]c2n1 (centres unmarked) [MVH-82]	> 15	<50	> 15	<50	> 15	<50	> 15	<50	<50	<50	<50	97.29 ± 1.61	96.96 ± 5.75	100	100	100	98.49 ± 1.76	100	–	–	IC50 ([1]; CXCL6 at EC80): > 15 µM; IC50 ([1]; CXCL7 at EC80): > 15 µM; IC50 ([1]; CXCL8 at EC80): > 15 µM; IC50 ([2]; CXCL1 at EC80): 2.13 ± 0.34 µM; IC50 ([2]; CXCL2 at EC80): 0.74 ± 0.16 µM; IC50 ([2]; CXCL3 at EC80): 2.53 ± 0.15 µM; IC50 ([2]; CXCL5 at EC80): 1.33 ± 0.47 µM; IC50 ([2]; CXCL6 at EC80): 0.88 ± 0.47 µM; IC50 ([2]; CXCL7 at EC80): 0.37 ± 0.11 µM; IC50 ([2]; CXCL8 at EC80): 2.32 ± 0.72 µM
